Source: US12509451B2, “Heteroaryl amide inhibitors of CD38” (NAPA THERAPEUTICS LTD., priority 2020, dated 2025)

Target: T1, recombinant rat CD38 Protein (Rattus norvegicus, UniProt Q64244)
T1 construct: purchased Sino Biological
T1 sequence (Q64244 1-303): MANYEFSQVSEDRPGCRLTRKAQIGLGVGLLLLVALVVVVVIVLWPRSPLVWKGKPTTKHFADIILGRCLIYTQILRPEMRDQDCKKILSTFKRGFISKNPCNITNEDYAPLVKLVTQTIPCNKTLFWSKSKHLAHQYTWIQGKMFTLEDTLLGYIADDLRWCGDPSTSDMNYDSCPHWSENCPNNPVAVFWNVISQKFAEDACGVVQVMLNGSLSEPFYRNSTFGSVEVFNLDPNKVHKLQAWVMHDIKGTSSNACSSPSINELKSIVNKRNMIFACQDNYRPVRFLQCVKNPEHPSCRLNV
Test: Fluorescence-based NAD+ hydrolase activity assay with rat recombinant CD38 protein (Assay 6)
Type: biochemical
Conditions: read-out: Assay 6 Arithmetic mean IC50
Protocol: This protocol was modified from the following references: Muller et al. (1983); Schultz et al. (2018); Matalonga et al. (2017); and de Oliveira et al. (2018), supra.
NAD+ hydrolase activity of the rat recombinant CD38 protein treated with test compounds was measured using a fluorescence-based assay. Briefly, recombinant rat CD38 Protein (Sino Biological) was resuspended in 44 μl/well of Sucrose-Tris Buffer (Sucrose 0.25 M, Tris pH 7.4 40 mM) and plated in a 96 well black plate (CORNING) at a density of 2.5 ng/well.
Each test compound was received in a powder state and dissolved in DMSO as a 25 mM stock solution. Each test compound was serially diluted in order to generate a dose-response curve. […]
The reaction was started adding nicotinamide 1,N^6-etheno-adenine dinucleotide (Sigma Aldrich) to reach a final concentration of 80 µM. The samples were excited at 321-15 nm and the emission of fluorescence was measured at 410-20 nm at 37° C. every minute for 1 hr in a Clariostar Microplate® reader (BMG LABTECH). NAD+ hydrolase activity was calculated as the slope of the linear portion of the fluorescence-time curve using the MARS data analysis software (BMG LABTECH). The data were uploaded in the Collaborative Drug Design (CDD) Software and for each compound the IC50 was calculated by the software. […] For each plate, the z-factor was also calculated as a plate quality using the CDD software.

IC50: 1 to 50 nM
Structure (SMILES): COCCOc1cc(C(=O)Nc2ccnc(C(F)(F)F)c2)nc(-n2ccnc2)n1 [Compound 39, 2-(1H-imidazol-1-yl)-6-(2-methoxyethoxy)-N-(2-(trifluoromethyl)pyridin-4-yl)pyrimidine-4-carboxamide]
